Data: the NIST ThermoML archive (doi:10.1016/j.fluid.2010.12.012)
± gives the expanded uncertainty stated by the source.

Experiment: wn = mass fraction of the nth substance listed
Settings: 294.9 K, Liquid; for viscosity: Cone and plate viscometry; for mass density: Vibrating tube method

CC [ethane] + CO
Settings	mass density [kg/m3]	viscosity [mPa·s]
1196 kPa, w1 = 0.056	750 ± 2	0.54 ± 0.02
2123 kPa, w1 = 0.12	720 ± 2	0.43 ± 0.02
3130 kPa, w1 = 0.225	671 ± 2	0.32 ± 0.01
